From PMC12214830, “The human RIF1-Long isoform interacts with BRCA1 to promote recombinational fork repair under DNA replication stress” (Nature Communications, 2025)

What was measured:
Assay type in all cases: cell-based, human
ssDNA = assay: native IdU immunofluorescence (ssDNA), RPE-1 cells; conditions: HU 4 mM 24 h
Experimental: For detection of iododeoxyuridine (IdU) by immunofluorescence, cells were grown in the presence of 10 µM IdU for 72 h (with Morpholinos added at 24 h and HU added at 48 h). Cells were then permeabilized with 0.5% TritonX-100 in PBS for 7 min on ice, fixed with 4% w/v formaldehyde solution for 15 min at RT, and treated again with 0.5% TritonX-100 in PBS for 10 min on ice. Coverslips were immunostained as described above.

[1] = system: RIF1-BRCA1 proximity in HeLa cells; assay: RIF1-BRCA1 proximity ligation assay, HeLa cells
Experimental: Proximity ligation assays were performed using the Duolink In Situ PLA Fluorescence Protocol (Sigma-Aldrich, DUO92101) following the manufacturer’s instruction. Cells were grown on glass coverslips and treated as indicated for specific experiments. Cells were then permeabilized with 0.5% TritonX-100 in PBS for 10 min on ice, and fixed with 3% formaldehyde, 2% sucrose in PBS for 10 min at room temperature (RT). After fixation, coverslips were blocked in 3% BSA in PBS for 1 h at RT and incubated with primary antibodies (anti-RIF1, Bethel laboratories A300-568A, 1:1000 dilution; anti-BRCA1, Santa Cruz Biotechnologies, sc-6954, 1:200 dilution), for 1 h at RT in a humidity chamber. Primary antibodies were then washed off with PLA washing buffer A supplied in the Duolink In Situ PLA kit. Coverslips were next incubated sequentially with PLA Probes (1 h at 37 °C), ligation solution (30 min at 37 °C) and amplification solution (100 min at 37 °C), with washes by washing buffer A in between each step. At the end of incubation, coverslips were washed with washing buffer B supplied in the Duolink In Situ PLA kit. Coverslips were then mounted on glass slides with PLA Mounting medium with DAPI. Images were captured by fluorescence microscopy (Zeiss Axio Imager). PLA foci number in each nucleus were analysed by CellProfiler Software[74] with a custom-made pipeline.
For proximity ligation assays and immunofluorescence signal intensity measurements, when comparing between two samples, statistical significance of differences was calculated by Mann-Whitney test for non-parametric distributions using GraphPad Prism software (v.9). When comparing among three or more samples, p values were calculated by Kruskal-Wallis test for non-parametric distributions with Dunn’s multiple comparisons using GraphPad Prism software (v.9). For RIF1 foci formation analysis (Fig. 6B), p values were calculated by two-tailed Student’s t test. For nuclear BRCA1 intensity fold change analyses (Fig. 6C, D), p values were calculated by two-tailed one-sample t test using GraphPad Prism software (v.9). For RAD51 foci formation analyses (Fig. 7B, E and Supplementary Fig. 7B), p values were calculated by chi-square test. For HR Reporter assay analysis (Fig. 7G and Supplementary Fig. 7L), p values were calculated by two-tailed paired Student’s t test. For micronuclei frequency analysis (Fig. 7H), p values were calculated by one-tailed paired Student’s t test. All Student’s t tests were performed with Excel T.TEST function. Chi-square tests were performed with the online Chi-square test calculator at https://www.socscistatistics.com/tests/chisquare2/default2.aspx. Sample number n for all box-and-whisker plots and dot plots are listed in Supplementary Data 1.

GFP-RIF1-L-pp1bs foci = assay: co-localisation of RIF1-L-pp1bs foci with BRCA1, γH2AX, RAD51, HeLa cells; conditions: HU 4 mM 24 h
Experimental: Cells were grown on glass coverslips and treated as desired. Cells were then permeabilized with 0.5% TritonX-100 in PBS for 7 min on ice, and fixed with 4% w/v formaldehyde solution (Sigma HT5012) for 10 min at room temperature (RT). After fixation, coverslips were blocked with 3% BSA in PBS (RT, 1 h), incubated with primary antibodies (RT, 2 h), washed with PBS three times and incubated with secondary antibodies (RT, 1 h). Primary antibodies used for immunofluorescence include anti-γH2A.X (20E3) (Cell Signalling Technology, 9718. 1:500); anti-RPA32/RPA2 (9H8) (Abcam, ab2175. 1:200); anti-RAD51 (H92) (Santa Cruz Biotechnology, sc-8349. 1:100); anti-BrdU (B44) (BD Biosciences, 347580. 1:100); Coverslips were then mounted on glass slides with mounting medium with DAPI. Images were captured by either standard (Zeiss Axio Imager) or confocal (Zeiss LSM-880) microscopy. Fluorescence signal intensities within each nucleus were analysed by CellProfiler software with custom-made pipelines. Co-localisation analyses were performed with custom-made CellProfiler pipelines. Briefly, nuclei were identified and used to create masks. Nuclear RIF1-L-pp1bs, BRCA1, γH2AX, RAD51 foci were identified as objects using Otsu thresholding. ‘Relate objects’ function (defining RIF1-L-pp1bs foci as parent object and foci of other proteins as children object) was used to measure the percentage of RIF1-L-pp1bs foci co-localised with other proteins.

[2] = Fig 5G/H, HeLa RIF1 KO + RIF1-L-pp1bs, HU 4 mM 24 h
[3] = Fig 5G/H, HeLa RIF1 KO + RIF1-L, HU 4 mM 24 h
[4] = Fig 5G/H, HeLa RIF1 KO, HU 4 mM 24 h
[5] = Fig S3F, HeLa RIF1-L-APKF, HU 4mM 24hr
[6] = Fig S3F, HeLa RIF1-L, HU 4mM 24hr
[7] = Fig S3F, HeLa RIF1-S, HU 4mM 24hr
[8] = Fig S4H, HeLa +RIF1-L, HU 4mM 24hr
[9] = Fig S4I, HeLa +RIF1-L, HU 4mM 24hr
[10] = Fig S5G (repeat), HeLa RIF1 WT (RIF1-L), HU 4mM 24hr
[11] = Fig S5G (repeat), HeLa RIF1 pp1bs, HU 4mM 24hr
[12] = Fig S5I, HeLa RIF1-L-pp1bs-APKF, HU 4mM 24hr
[13] = Fig S5I, HeLa RIF1-L-pp1bs, HU 4mM 24hr

NC(=O)NO [HU, hydroxyurea]
native IdU staining (ssDNA): both increased upon HU treatment | RIF1-BRCA1 PLA foci per nucleus, mean [1, 2]: 45.51 | RIF1-BRCA1 PLA foci per nucleus, median [1, 2]: 42 | RIF1-BRCA1 PLA foci per nucleus, mean [1, 3]: 27.55 | RIF1-BRCA1 PLA foci per nucleus, median [1, 3]: 21 | RIF1-BRCA1 PLA foci per nucleus, mean [1, 4]: 1.394 | RIF1-BRCA1 PLA foci per nucleus, median [1, 4]: 1 | RIF1-BRCA1 PLA foci per nucleus, mean [1, 5]: 14.65 | RIF1-BRCA1 PLA foci per nucleus, median [1, 5]: 12 | RIF1-BRCA1 PLA foci per nucleus, mean [1, 6]: 18.04 | RIF1-BRCA1 PLA foci per nucleus, median [1, 6]: 15 | RIF1-BRCA1 PLA foci per nucleus, mean [1, 7]: 13.85 | RIF1-BRCA1 PLA foci per nucleus, median [1, 7]: 12 | RIF1-BRCA1 PLA foci per nucleus, mean [1, 8]: 21.43 | RIF1-BRCA1 PLA foci per nucleus, median [1, 8]: 20 | RIF1-BRCA1 PLA foci per nucleus, mean [1, 9]: 18.83 | RIF1-BRCA1 PLA foci per nucleus, median [1, 9]: 2, 17, 17 | RIF1-BRCA1 PLA foci per nucleus, mean [1, 10]: 40.69 | RIF1-BRCA1 PLA foci per nucleus, median [1, 10]: 37 | RIF1-BRCA1 PLA foci per nucleus, mean [1, 11]: 62.09 | RIF1-BRCA1 PLA foci per nucleus, median [1, 11]: 62 | RIF1-BRCA1 PLA foci per nucleus, mean [1, 12]: 46.58 | RIF1-BRCA1 PLA foci per nucleus, median [1, 12]: 42 | RIF1-BRCA1 PLA foci per nucleus, mean [1, 13]: 53.47 | RIF1-BRCA1 PLA foci per nucleus, median [1, 13]: 53 | RIF1-L-pp1bs foci co-localised with RAD51 and BRCA1 (GFP-RIF1-L-pp1bs foci): ~ 20% | RIF1-L-pp1bs foci colocalised with both BRCA1 and γH2AX (GFP-RIF1-L-pp1bs foci): Approximately 40% | RIF1-L-pp1bs foci overlapping BRCA1 signal (GFP-RIF1-L-pp1bs foci): 50–60% | RIF1-L-pp1bs foci overlapping γH2AX foci (GFP-RIF1-L-pp1bs foci): ~ 50%
